{"source": "patent US20250017878A1", "about": "(Chronic Airway Therapeutics Limited, priority 2021, published 2025)", "key": {"[1]": {"settings": "cited from earlier work"}, "β-arrestin pathway": {"system": "β-arrestin pathway", "assay": "Blockade of the β-arrestin pathway, Example 16 / FIG. 16", "assay_type": "cell-based"}, "[2]": {"system": "mucous metaplasia in sensitized/challenged mice", "assay": "Mucous metaplasia in sensitized/challenged mice (photomicrographs), Example 10", "assay_type": "in vivo", "settings": "sensitized/challenged mice after treatment"}, "β2-adrenergic receptor [3]": {"biological_target": "T1, β2-adrenergic receptor (Mus musculus, UniProt P18762)", "T1 sequence (P18762 whole entry)": "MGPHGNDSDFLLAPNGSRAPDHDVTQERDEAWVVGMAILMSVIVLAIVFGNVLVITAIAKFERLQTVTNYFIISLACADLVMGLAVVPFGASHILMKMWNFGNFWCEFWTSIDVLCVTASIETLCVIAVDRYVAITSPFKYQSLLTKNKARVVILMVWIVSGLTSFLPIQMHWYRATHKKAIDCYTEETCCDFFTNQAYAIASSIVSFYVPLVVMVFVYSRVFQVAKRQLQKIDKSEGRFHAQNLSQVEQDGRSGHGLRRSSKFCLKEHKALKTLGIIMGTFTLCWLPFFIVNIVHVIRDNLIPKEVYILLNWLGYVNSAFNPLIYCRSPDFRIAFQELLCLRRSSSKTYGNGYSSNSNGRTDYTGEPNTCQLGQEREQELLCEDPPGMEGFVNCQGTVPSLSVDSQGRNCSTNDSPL", "assay": "Immunohistochemistry of β2-adrenergic receptor levels in lung sections, Example 3", "assay_type": "in vivo, mice", "parameters": "from tissue; host or cells: mouse lung sections", "settings": "chronic nadolol versus untreated animals; epifluorescent microscopy", "procedure": "The mice were sacrificed and the lungs excised. Then the lungs were fixed in 4% paraformaldehyde (45 min, 0° C.). After fixation, lungs were washed in PBS (60 min) and placed in increasing concentrations of sucrose (10% sucrose/5% glycine in PBS for 30 min; 20% sucrose/10% glycine in PBS for 30 min; 30% sucrose/15% glycine in PBS for 12 h at 4° C.). Lungs were embedded in OCT and 12-μm sections cut with a Tissue-Tek II cryostat. The sections were air-dried and fixed with 4% paraformaldehyde for 15 minutes. After 3 washes in PBS, the slides were blocked with 5% milk in PBS for 1 hour, and then incubated overnight with anti-β2-adrenergic receptor antibody (1:200, Santa Cruz Biotechnology) in blocking solution. Slides were washed in PBS and incubated with secondary antibody (1:200, Cy3 goat anti-rabbit antibody, 16 h at 4° C.). […] After washing with PBS, coverslips were mounted and viewed by epifluorescent microscopy."}, "[4]": {"system": "asthmatic mice (ovalbumin-sensitized and ovalbumin-challenged)", "settings": "same mouse asthma model; Callaerts-Vegh et al. 2004; cited from earlier work"}, "asthmatic mice [5]": {"system": "asthmatic mice", "assay": "Decrease in airway resistance (Raw) by period of administration, Example 8 / Table 2", "assay_type": "in vivo", "procedure": "(§1) The periods of administration of the agents are 15 minutes, 2 days, and 28 days. […] This strongly supports the concept of combination therapy, such as with an inverse agonist and an agonist."}, "cAMP accumulation": {"system": "cAMP accumulation", "assay": "cAMP accumulation, Example 16 / FIG. 16", "assay_type": "cell-based"}, "β2-adrenergic receptor [6]": {"biological_target": "T1, β2-adrenergic receptor", "assay": "Upregulation of β2-adrenergic receptor density by period of administration, Example 8 / Table 2", "assay_type": "in vivo, mice", "parameters": "from tissue", "procedure": "as §1"}, "[7]": {"system": "ovalbumin-sensitized, allergen-challenged mice", "assay": "Aminophylline on acute airway effects of nadolol (methacholine-induced bronchoconstriction), Example 5", "assay_type": "in vivo", "settings": "nadolol 0.72 mg/kg i.p. 15 minutes prior to methacholine challenge", "method": "At time point 1 (time=−10 min) baseline airway resistance of the mice was determined. At time point 2 (time=−5 min) methacholine was infused into mice to reach their EC70."}, "β2-adrenergic receptor [8]": {"system": "β2-adrenergic receptor", "assay": "Determination of β-adrenergic receptor density by radioligand (ICYP) binding in lung membranes of treated asthmatic mice, Example 2", "assay_type": "in vivo", "settings": "for Apparent KD (of radioligand ICYP): KD of ICYP binding, not of the drug", "procedure": "β2-adrenergic receptor numbers were measured in asthmatic mice as follows. […] Mice were sacrificed and lung membranes were isolated as follows. Frozen lung tissue was homogenized in an ice-cold buffer containing 0.32 M sucrose and 25 mM Tris (pH 7.4) using a polytron (Pro 200, Pro Scientific, Inc.). The homogenate was centrifuged at 1000×g for 10 min at 4° C. The resulting supernatant was centrifuged at 40,000×g for 20 min at 4° C. The pellet was suspended in an ice-cold 25 mM Tris-HCl buffer (pH 7.4) and centrifuged at 40,000×g for 20 min at 4° C. The final pellet was suspended in 200 μL of 25 mM Tris-HCl (pH 7.4); membrane protein concentration was determined by BCA protein assay kit. […] The incubation was done at 37° C. for 2 h and terminated by rapid vacuum filtration through glass fiber filters. The filters were washed three times with 250 μL of cold wash buffer (25 mM Tris-HCl, pH 7.4) and the radioactivity determined in a counter. […] Receptor densities are expressed as femtomoles of sites per milligram of protein. Bmax is determined by nonlinear regression of the saturation binding curves. […] Please note that the 15-minute and 28-day time points refer to duration of drug treatment."}, "[9]": {"system": "asthmatic mice (ovalbumin-sensitized and ovalbumin-challenged)", "assay": "Airway responsiveness to methacholine (airway resistance Raw, forced oscillation) in murine model of asthma, Example 1", "assay_type": "in vivo, Balb/cJ mice", "procedure": "The results obtained in drug-treated animals were compared with those obtained in vehicle-treated counterparts (controls) in experiments performed in close temporal relationship. […] Mice were sensitized with subcutaneous injection of 25 μg of ovalbumin adsorbed to aluminum hydroxide on protocol days 2, 9, and 16. Subsequently, mice were given 50 μL of saline solution containing 25 μg of ovalbumin intranasally, on a daily basis, from protocol days 23 through 27. A group of ovalbumin-sensitized saline-challenged mice serves as controls for systemic sensitization and respiratory challenges with ovalbumin. Prior to intranasal administrations, mice were sedated with halothane vapor. For the study of Example 1, ovalbumin-sensitized and ovalbumin-challenged mice, and ovalbumin-sensitized and saline-challenged mice will be referred to as asthmatic mice and control mice, respectively. […] To examine the effects of duration of β-adrenergic ligand therapy on the phenotype of the murine model of asthma, the experimental drugs were administered either acutely or chronically to different groups of asthmatic mice. […] These concentrations were chosen based on those producing therapeutic effects in mice in previously published studies. The non-asthmatic mice were fed normal chow. Salbutamol was delivered for 28 days at a dose of 0.5 mg/kg/day using an osmotic minipump (Alzet®, #2004, Durect Corporation, Cupertino, CA). […] Airway resistance (Raw) was measured using the forced oscillation technique. The cellular composition of bronchoalveolar lavage fluid (BALF) was also determined. […] However, it was observed that the degree of airway responsiveness and the number of eosinophils recovered in BALF were lower in non-treated asthmatic mice studied in close temporal relationship with mice receiving acute β-adrenergic antagonist treatments that in those obtained in non-treated asthmatic mice studied concomitantly with mice on chronic β-adrenergic antagonist therapy. […] The complex input impedance of the respiratory system was computed and the value of the real part of respiratory system impedance at 19.75 Hz was taken to reflect the magnitude of airway resistance (Raw). To examine the degree of airway responsiveness of each animal, the values for Raw as a function of methacholine doses were plotted. The largest value for Raw achieved in response to methacholine stimulation was referred to as […]. For mice that achieved a plateau in the methacholine dose-Raw response curve, the ED50 was calculated by linear interpolation using the GraphPad Prism4 (GraphPad Software, Inc.). Results obtained for β-adrenergic drug-treated and non-treated mice were performed using the analysis of variance for multiple groups of a Student's t-test for comparing two groups. The Bonferroni test was used to examine the statistical differences between experimental groups. The effects of acute drug treatments on baseline respiratory system mechanics were assessed using a two-tailed paired t-test. A value of P<0.05 was considered significant."}, "asthmatic mice [10]": {"system": "asthmatic mice", "assay": "β-adrenergic receptor drugs at low and high doses on airway resistance, Example 7", "assay_type": "in vivo", "procedure": "For these experiments, salbutamol was used for chronic administration at 0.5 mg/kg/day with a minipump and for acute administration at 0.15 mg/kg by i.v. bolus 15 minutes prior to challenge. […] Carvedilol was used at a high dose of 2400 ppm in chow or at a low dose of 720 ppm in chow. […] In these diagrams, Ctrl=control mice, non-asthmatic, non-drug treated; NTX=asthmatic mice, non-drug treated; AC=acute administration; 2d=chronic administration for 2 days; 28d=chronic administration for 28 days. The airway resistance (Raw) is plotted as cm H2O ml^−1 s."}, "[11]": {"system": "patients who had a history of failing to quit smoking programs", "assay": "Success of smoking cessation versus placebo, Example 14", "assay_type": "in vivo, human", "settings": "patients who had failed quit smoking programs at least 5 times"}, "[12]": {"system": "subjects with mild asthma", "assay": "Salbutamol effectiveness after methacholine challenge in subjects with mild asthma on nadolol, Example 15", "assay_type": "in vivo, human", "settings": "salbutamol 2.5 mg by nebulization", "excerpt": "Salbutamol is a short-acting β2-adrenergic receptor agonist."}}, "data": [{"smiles": "CC(C)(C)NCC(O)COc1cccc2c1CC(O)C(O)C2", "note": "(stereo not shown) [Nadolol, nadolol]", "values": [{"measurement": "lipid solubility", "setting": "[1]", "result": "low lipid solubility"}, {"measurement": "block of the β-arrestin pathway", "setting": "β-arrestin pathway", "result": "acts to block the β-arrestin pathway"}, {"measurement": "mucous metaplasia", "setting": "[2]", "result": "nearly complete elimination of mucous metaplasia"}, {"measurement": "labeling with anti-β2-adrenergic receptor antibodies in lungs", "setting": "β2-adrenergic receptor [3]", "result": "considerably more intense"}, {"measurement": "airway hyperresponsiveness, administered acutely", "setting": "[4]", "result": "worsens airway hyperresponsiveness"}, {"measurement": "airway hyperresponsiveness, administered chronically", "setting": "[4]", "result": "prevents airway hyperresponsiveness"}, {"measurement": "Decreased Raw", "setting": "asthmatic mice [5]; 15 minutes administration", "result": "no"}, {"measurement": "Decreased Raw", "setting": "asthmatic mice [5]; 2 days administration", "result": "yes"}, {"measurement": "Decreased Raw", "setting": "asthmatic mice [5]; 28 days administration", "result": "yes"}, {"measurement": "cAMP accumulation", "setting": "cAMP accumulation", "result": "not associated with cAMP accumulation"}, {"measurement": "Increased β2AR density", "setting": "β2-adrenergic receptor [6]; 15 minutes administration", "result": "no"}, {"measurement": "Increased β2AR density", "setting": "β2-adrenergic receptor [6]; 2 days administration", "result": "yes"}, {"measurement": "Increased β2AR density", "setting": "β2-adrenergic receptor [6]; 28 days administration", "result": "yes"}, {"measurement": "baseline airway resistance", "setting": "[7]", "result": "the same baseline airway resistance as non-drug treated sensitized and allergen-challenged mice"}, {"measurement": "increase of the level of β2-adrenergic receptors over the non-treated mice", "setting": "β2-adrenergic receptor [8]; chronic administration, versus untreated methacholine-challenged asthmatic mice", "result": "nearly eightfold increase"}, {"measurement": "Apparent KD (of radioligand ICYP)", "setting": "β2-adrenergic receptor [8]; lung membranes, drug treatment 15 Minutes", "result": "(695.1 ± 286.3) pM"}, {"measurement": "Bmax (β-adrenergic receptor density)", "setting": "β2-adrenergic receptor [8]; lung membranes, drug treatment 15 Minutes, mean ± SEM, n=3-5", "result": "181.9 ± 48.28 femtomoles of sites per milligram of protein"}, {"measurement": "Apparent KD (of radioligand ICYP)", "setting": "β2-adrenergic receptor [8]; lung membranes, drug treatment 28 Days", "result": "(1591.6 ± 335.0) pM"}, {"measurement": "βmax (β-adrenergic receptor density)", "setting": "β2-adrenergic receptor [8]; lung membranes, drug treatment 28 Days, mean ± SEM, n=3-5", "result": "785.5 ± 154.8 femtomoles of sites per milligram of protein"}, {"measurement": "airway responsiveness to methacholine provocation (Raw), chronic treatment", "setting": "[9]; drug delivered for 28 days (chow or osmotic minipump)", "result": "produced a decrease in airway responsiveness, which was more pronounced than that caused by carvedilol treatment"}, {"measurement": "airway responsiveness to methacholine provocation (Raw), acute treatment", "setting": "[9]; single intravenous bolus 15 minutes before methacholine", "result": "enhanced the airway responsiveness of asthmatic mice"}, {"measurement": "protection from airway hyperresponsiveness", "setting": "asthmatic mice [10]; chronic administration in chow, high and low dose", "result": "providing protection from airway hyperresponsiveness with chronic administration"}, {"measurement": "airway resistance (Raw) at 1 ppm in chow", "setting": "asthmatic mice [10]; nadolol 1 ppm in chow", "result": "identical to the untreated mice"}, {"measurement": "reduction in smoking", "setting": "[11]", "result": 70, "unit": "%"}, {"measurement": "effect on effectiveness of salbutamol after methacholine challenge", "setting": "[12]", "result": "does not block the effectiveness of the administration of salbutamol"}]}]}
